PubChem BioAssay AID248 (DTP/NCI, 2004)
Values joined by “and” are separate entries in the source; they are usually repeats but may differ in a detail not shown here. Identical values can stand only once. Toxic doses and inconclusive results are not listed. No stated cut-off is given here; in the data, active means T/C of 150% or more; inactive means T/C below 125%.

System: L1210 leukemia ip in BDF1 mice, survival T/C
Test: NCI In Vivo Anticancer Drug Screen. Data for tumor model L1210 Leukemia (intraperitoneal) in B6D2F1 (BDF1) mice
Conditions: endpoint: mean survival time, higher = longer survival
Procedure, shortened: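 Tumor was transplanted into mice, which were then dosed with test compound or vehicle alone. Survival was recorded for each group, and the treated figure was expressed relative to the control figure.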

[1] = dose: 100.0 mg/kg/injection, schedule: Q04DX003 (ip), vehicle: saline
[2] = dose: 200.0 mg/kg/injection, schedule: Q04DX003 (ip), vehicle: saline
[3] = dose: 400.0 mg/kg/injection, schedule: Q04DX003 (ip), vehicle: saline
[4] = dose: 100.0 mg/kg/injection, schedule: Q01DX001 (ip), vehicle: carboxymethylcellulose (CMC)
[5] = dose: 200.0 mg/kg/injection, schedule: Q01DX001 (ip), vehicle: carboxymethylcellulose (CMC)
[6] = dose: 400.0 mg/kg/injection, schedule: Q01DX001 (ip), vehicle: carboxymethylcellulose (CMC)
[7] = dose: 100.0 mg/kg/injection, schedule: Q01DX001 (ip), vehicle: saline
[8] = dose: 200.0 mg/kg/injection, schedule: Q01DX001 (ip), vehicle: saline
[9] = dose: 100.0 mg/kg/injection, schedule: Q01DX009 (ip), vehicle: Klucel (hydroxypropylcellulose) (HPC)
[10] = dose: 200.0 mg/kg/injection, schedule: Q01DX009 (ip), vehicle: Klucel (hydroxypropylcellulose) (HPC)
[11] = dose: 400.0 mg/kg/injection, schedule: Q01DX009 (ip), vehicle: Klucel (hydroxypropylcellulose) (HPC)
[12] = dose: 100.0 mg/kg/injection, schedule: Q04DX003 (ip), vehicle: Klucel (hydroxypropylcellulose) (HPC)
[13] = dose: 200.0 mg/kg/injection, schedule: Q04DX003 (ip), vehicle: Klucel (hydroxypropylcellulose) (HPC)
[14] = dose: 400.0 mg/kg/injection, schedule: Q04DX003 (ip), vehicle: Klucel (hydroxypropylcellulose) (HPC)
[15] = dose: 50.0 mg/kg/injection, schedule: Q04DX003 (ip), vehicle: Klucel (hydroxypropylcellulose) (HPC)
[16] = dose: 100.0 mg/kg/injection, schedule: Q01DX009 (ip), vehicle: saline with Tween-80
[17] = dose: 100.0 mg/kg/injection, schedule: Q04DX003 (ip), vehicle: saline with Tween-80
[18] = dose: 200.0 mg/kg/injection, schedule: Q01DX009 (ip), vehicle: saline with Tween-80
[19] = dose: 200.0 mg/kg/injection, schedule: Q04DX003 (ip), vehicle: saline with Tween-80
[20] = dose: 100.0 mg/kg/injection, schedule: Q01DX001 (ip), vehicle: other
[21] = dose: 200.0 mg/kg/injection, schedule: Q01DX001 (ip), vehicle: other
[22] = dose: 25.0 mg/kg/injection, schedule: Q04DX003 (ip), vehicle: saline with Tween-80
[23] = dose: 50.0 mg/kg/injection, schedule: Q04DX003 (ip), vehicle: saline with Tween-80

Measured: T/C

Nc1ccc(Nc2ccccc2)c(S(=O)(=O)O)c1
inactive: dose: 100.0 mg/kg/injection, schedule: Q01DX009 (ip), vehicle: saline 107 % of control | [1] 105 % of control | dose: 200.0 mg/kg/injection, schedule: Q01DX009 (ip), vehicle: saline 107 % of control | [2] 92 % of control | dose: 400.0 mg/kg/injection, schedule: Q01DX009 (ip), vehicle: saline 110 % of control | [3] 95 % of control

COc1ccc(C2C(c3ccccc3)C=CC(c3ccccc3)C2[N+](=O)[O-])cc1OC (stereo not drawn)
inactive: [4] 94 % of control | [5] 110 % of control | [6] 94 % of control

O=C(O)c1cccc(-c2ccccc2)c1O
inactive: [7] 97 % of control | [8] 102 % of control

Cc1cccc(C2NC(=O)N3C(c4cccc(C)c4)NC(=O)N23)c1 (stereo not drawn)
inactive: dose: 100.0 mg/kg/injection, schedule: Q01DX009 (ip), vehicle: gum acacia 89 % of control | dose: 100.0 mg/kg/injection, schedule: Q04DX003 (ip), vehicle: gum acacia 88 % of control | dose: 200.0 mg/kg/injection, schedule: Q01DX009 (ip), vehicle: gum acacia 88 % of control | dose: 200.0 mg/kg/injection, schedule: Q04DX003 (ip), vehicle: gum acacia 93 % of control | dose: 400.0 mg/kg/injection, schedule: Q04DX003 (ip), vehicle: gum acacia 90 % of control

Cc1ccc([N+](=O)[O-])cc1NC(=O)N(CCC#N)C1CCCCC1
inactive: [9] 101 % of control | [10] 105 % of control | [11] 95 % of control

C=C1C(=O)OC2CC(C)C3CC(O)OC(O)C3(C)CC12 (stereo not drawn)
inactive: dose: 0.39 mg/kg/injection, schedule: Q01DX005 (ip), vehicle: water 108 % of control | dose: 0.78 mg/kg/injection, schedule: Q01DX005 (ip), vehicle: water 108 % of control | dose: 1.56 mg/kg/injection, schedule: Q01DX005 (ip), vehicle: water 106 % of control | dose: 3.13 mg/kg/injection, schedule: Q01DX005 (ip), vehicle: water 106 % of control | dose: 6.25 mg/kg/injection, schedule: Q01DX005 (ip), vehicle: water 104 % of control

CC(C)C1CC(C)(C)c2cc3c(cc2O1)C(C)(C)CC(C(C)C)O3 (stereo not drawn)
inactive: [12] 91 % of control | [13] 106 % of control | [14] 96 % of control

CCc1nnnn1C12CC3CC(CC(C3)C1)C2
inactive: [1] 102 % of control

CC(=O)Nc1ccc(/C=N\NC(=O)N/N=C/c2ccc(NC(C)=O)cc2)cc1
inactive: [15] 90 % of control | [12] 91 % of control

N#C/C(=C1C=C(Br)/C(=N\O)C=C\1Cl)c1ccc(Cl)cc1
inactive: dose: 100.0 mg/kg/injection, schedule: Q01DX009 (ip), vehicle: acetone 95 % of control | dose: 100.0 mg/kg/injection, schedule: Q04DX003 (ip), vehicle: acetone 100 % of control | dose: 200.0 mg/kg/injection, schedule: Q04DX003 (ip), vehicle: acetone 100 % of control | dose: 400.0 mg/kg/injection, schedule: Q04DX003 (ip), vehicle: acetone 94 % of control

Cc1cc(Cl)ccc1NC(=O)c1ccc([N+](=O)[O-])cc1
inactive: [16] 92 % of control | [17] 92 % of control | [18] 86 % of control | [19] 93 % of control | dose: 400.0 mg/kg/injection, schedule: Q04DX003 (ip), vehicle: saline with Tween-80 92 % of control

CCCCCCCCCCCCCCCCCC[N+](CCCC)(CCCC)CCCCCCCCCCCCCCCCCC (tested in a mixture with another compound)
inactive: [20] 93 % of control | [21] 90 % of control

CCCCCCCCCCCCOc1ccc(C(=O)CC(=O)OCC)cc1
inactive: dose: 100.0 mg/kg/injection, schedule: Q01DX001 (ip), vehicle: acetone 95 % of control | dose: 200.0 mg/kg/injection, schedule: Q01DX001 (ip), vehicle: acetone 100 % of control | [2] 90 % of control | dose: 400.0 mg/kg/injection, schedule: Q01DX001 (ip), vehicle: acetone 108 % of control | [3] 89 % of control

C=C1C(O)CC2CC1C2(C)C (stereo not drawn)
inactive: [17] 92 % of control | [19] 92 % of control

N#CCCP(=O)(CCC#N)CCCCCCP(=O)(CCC#N)CCC#N
inactive: [16] 90 % of control | [18] 90 % of control | dose: 400.0 mg/kg/injection, schedule: Q01DX009 (ip), vehicle: saline with Tween-80 89 % of control

CNc1ccc(S(=O)(=O)O)cc1
inactive: [9] 98 % of control | [12] 104 % of control | [10] 103 % of control | [13] 102 % of control | [11] 101 % of control | [14] 98 % of control

Cc1ccc(S(=O)NOCc2ccccc2)cc1 (stereo not drawn)
inactive: [12] 95 % of control | [13] 105 % of control | [14] 100 % of control

O=C(Nc1ccc(F)cc1)c1cccc(C(=O)Nc2ccc(F)cc2)c1
inactive: [22] 96 % of control | [23] 93 % of control | [17] 95 % of control and 87 % of control

CC(C)c1ccc(/C=N\[N+](C)(C)C)cc1
inactive: [1] 101 % of control | [2] 95 % of control

COc1cc2c(cc1OC)C(CCN1C(=O)c3ccccc3C1=O)=NCC2
inactive: dose: 25.0 mg/kg/injection, schedule: Q01DX009 (ip), vehicle: saline 97 % of control | dose: 50.0 mg/kg/injection, schedule: Q01DX009 (ip), vehicle: saline 101 % of control | [1] 97 % of control

COC(=O)C(C(C)C)N(C)C(=O)OC(C)(C)C (stereo not drawn)
inactive: [20] 104 % of control | [21] 102 % of control | dose: 400.0 mg/kg/injection, schedule: Q01DX001 (ip), vehicle: other 100 % of control

Cc1csc2nc(-c3ccccc3)[nH]c(=O)c12
inactive: dose: 75.0 mg/kg/injection, schedule: Q01DX001 (ip), vehicle: saline sonified 86 % of control | dose: 150.0 mg/kg/injection, schedule: Q01DX001 (ip), vehicle: saline sonified 101 % of control | dose: 300.0 mg/kg/injection, schedule: Q01DX001 (ip), vehicle: saline sonified 107 % of control

CCCCN(CCCC)C(=N)OC1CCCCC1
inactive: dose: 8.8 mg/kg/injection, schedule: Q01DX Z (ip), vehicle: methylcellulose (MC) 93 % of control | dose: 13.3 mg/kg/injection, schedule: Q01DX Z (ip), vehicle: methylcellulose (MC) 91 % of control | dose: 20.0 mg/kg/injection, schedule: Q01DX Z (ip), vehicle: methylcellulose (MC) 97 % of control

c1ccc(COC2CN3CCC2CC3)cc1 (stereo not drawn)
inactive: [22] 91 % of control | [23] 95 % of control | [17] 90 % of control and 91 % of control

CCOC(=O)CNC(=O)CBr
inactive: dose: 10.0 mg/kg/injection, schedule: Q01DX Z (ip), vehicle: other 103 % of control | dose: 20.0 mg/kg/injection, schedule: Q01DX Z (ip), vehicle: other 91 % of control

CCOC(=O)Nc1ccc(NC(C)=O)cc1
inactive: [9] 104 % of control | [10] 98 % of control | [11] 93 % of control

CCCCCCCCCCCCNC(=O)Nc1ccc(Cl)c(Cl)c1
inactive: [7] 92 % of control | [8] 93 % of control

CCCCCCCCCCCCCCCCCCCCC1CC(=O)OC1=O (stereo not drawn)
inactive: [12] 91 % of control | [13] 92 % of control | [14] 91 % of control

COC(=O)/C=C/c1cccc([N+](=O)[O-])c1
inactive: [7] 100 % of control | [8] 100 % of control | dose: 400.0 mg/kg/injection, schedule: Q01DX001 (ip), vehicle: saline 100 % of control

O=c1cc(CSCCO)[nH]c(=O)[nH]1
inactive: [1] 102 % of control | [2] 96 % of control | [3] 104 % of control

Cc1cc(C)nc(SCC(=O)O)n1
inactive: dose: 50.0 mg/kg/injection, schedule: Q01DX001 (ip), vehicle: carboxymethylcellulose (CMC) 89 % of control | [4] 105 % of control | [5] 96 % of control | [6] 105 % of control

COC(=O)C1C2CC3c4[nH]c5cc(OC)ccc5c4CCN3CC2CC(OC2CCCCO2)C1OC (stereo not drawn)
inactive: dose: 25.0 mg/kg/injection, schedule: Q04DX003 (ip), vehicle: Klucel (hydroxypropylcellulose) (HPC) 98 % of control | [15] 100 % of control | [12] 117 % of control
